Read-outs that look alike come from different tables or passages of the source.
What was measured:
[1] = system: FmycT-K+ (c-Myc promoter G-quadruplex, parallel); assay: FRET melting assay, c-Myc promoter G4; type: binding; details: 200 nM DNA, PIPER and 3 not reliable (spectral overlap)
Procedure: (§1) With the library in hand, we began our investigation into G4 stabilization by conducting a Förster resonance energy transfer (FRET) melting assay to assess DNA stabilization using the procedure outlined by De Cian et. al. ^[13] […] The sequences examined (at 200 nM) were the human telomeric G4 in potassium buffer (F21T‐K^+, mixed parallel/hybrid G4) ^[14] and sodium buffer (F21T‐Na^+, antiparallel G4), ^[15] the c‐Myc promoter G‐quadruplex (FmycT‐K^+, parallel G4), ^[16] a polymorphic G4 found in T. brucei (FEBR1T‐K^+, a mixed G4 topology), ^[6b] and a hairpin duplex DNA sequence (F10T‐K^+). Together, these sequences represent targets for therapeutic intervention to treat parasitic infections, ^[6b] or cancer. ^[1b] The topology of each sequence was confirmed independently via circular dichroism (CD, Figure S1). […]
(§2) FRET melting assays were performed to assess ligand affinity for duplex and G-quadruplex
(§3) DNA. Briefly, oligonucleotides of interest were obtained labelled at the 5’ and 3’ ends with FAM (a fluorescence donor) and TAMRA (a fluorescence quencher), respectively. In the folded state, proximity of the donor and quencher result in no observed fluorescence from FAM, since energy is transferred non-radiatively to TAMRA by FRET. As the temperature is raised and the secondary structure denatures, the fluorophores move further apart and the fluorescence signal increases. From the resulting curve, the characteristic melting temperature (Tmax, also referred to as Tm) is defined as the temperature which corresponds to the maxima of the first derivative of the normalised fluorescence signal. The change in melting temperature (ΔTm) induced by the presence of a small molecule ligand provides an indication of the ligand’s ability to stabilise the DNA structure. FRET experiments were performed according to the […]
(§4) procedure reported by De Cian and co-workers[S3] on a Stratagene MX3005P. The method consisted of holding at 25 °C for 5 min, before heating at 1 °C/min to 96 °C in 1 °C increments, […]

[2] = system: Febr1T-K+ (T. brucei G-quadruplex); assay: FRET melting assay, T. brucei G4; type: binding; details: 200 nM DNA, PIPER and 3 not reliable (spectral overlap)
Procedure: as §1, §2, §3, §4

[3] = system: F10T-K+ (hairpin duplex DNA); assay: FRET melting assay, hairpin duplex DNA; type: binding; details: 200 nM DNA, PIPER and 3 not reliable (spectral overlap)
Procedure: as §1, §2, §3, §4

[4] = system: MRC5 non-tumoral cells; assay: Cytotoxicity, alamarBlue assay, MRC5; type: cell-based, human; details: 72 h incubation, alamarBlue fluorescence, read-out: absolute EC50 MRC5
Procedure: (§5) Doxorubicin, suramin and miltefosine were used as control compounds.[ ^6b , ^9 ] After incubation with varied concentrations of the compounds for 72 h, cell viability was measured using either an alamarBlue™ assay (for MRC5, HeLa and T. brucei) or MTT assay (for L. major). Absolute EC50 values and selectivity indexes were then calculated from dose‐response curves (Table 2 and S14). […]
(§6) Cell culture reagents were purchased from Thermo Fisher Scientific (Waltham, MA, USA) and used as-is. The Dulbecco’s Minimal Essential Medium (DMEM) formulation contained either high glucose (4.5 g/L, catalogue number: 10569) or low glucose (1 g/L, catalogue number:
(§7) 10567). RPMI-1640 was provided without sodium pyruvate and with L-glutamine (catalogue number: 11875). Phosphate Buffered Saline (PBS) contained NaCl (9 g/L), KH2PO4 (144 mg/L) and Na2HPO4-7.H2O (795 mg/L, catalogue number: 10010049). TrypLE Express™ was provided with EDTA (458 mg/L) and without Phenol Red (catalogue number: 12604021).
(§8) MRC-5 cells (human lung fibroblasts) were grown in monolayer (37 °C, 5 % CO2 and 100 % humidity) in DMEM medium (1 g/L glucose), supplemented with 10% heat-inactivated Fetal Bovine Serum (hiFBS), 2 mM L-glutamine, 100 U / mL penicillin and […]
(§9) streptomycin. […]
(§10) Cells were cultured according to ATCC recommendations and were used for the experiments while in the exponential growth phase. […]
(§11) Cytotoxicity was measured through the alamarBlue® assay (Thermo Fisher Scientific).[S6,S13] Briefly, 5×10^3 MRC-5 or HeLa cells were seeded in 96-wells plates (100 µL / well) in the presence of increasing concentrations of compound. After 72 hrs of incubation at 37 °C, 20 µL of alamarBlue® solution (110 ng / ml) was added to each well and cells were reincubated for 4 hrs at 37 °C. Then, 50 µL of 3 % SDS were added to each well. The plate was incubated at 37 °C for an extra hour and then analysed by fluorescence with an Infinite F200 plate reader (TECAN Austria, GmbH). The excitation wavelength was fixed at 550 nm and the emission wavelength at 590 nm. The results are expressed as the concentration of compound that reduces

[5] = system: T. brucei; assay: Trypanocidal activity, alamarBlue assay; type: cell-based; details: for EC50: Trypanosoma brucei, 72 h incubation, alamarBlue fluorescence, read-out: absolute EC50 T. brucei
Procedure: as §5, §6, §7, §8, §9, §10
hiFBS. Parasites were split every other day and maintained in their experimental growth phase (below 2 million parasites per mL).
as §11

[6] = system: ds26-K+ (DNA, duplex) CAATCGGATCGAATTCGATCCGATTG; assay: UV-Vis titration; details: independent/equivalent sites, 10 µM ligand, DNA up to 30 µM, apparent
[7] = system: Febr1T (DNA, G4) GGGCAGGGGGTGATGGGGAGGAGCCAGGG; assay: FRET melting; details: 10 mM K+, 90 mM Li+; 10 mM Li cacodylate; 5 µM ligand, 200 nM DNA
[8] = 5 μM ligand, 1 mM KCl, 99 mM LiCl, 10 mM Li cacodylate
[9] = 5 μM ligand, 10 mM KCl, 90 mM LiCl, 10 mM Li cacodylate

For `CN1CCN(CCCN2C(=O)c3ccc4c5ccc6c7c(ccc(c8ccc(c3c48)C2=O)c75)C(=O)N(CCCN2CCN(C)CC2)C6=O)CC1` [Compound 3], the “ΔTm FmycT-K+” value ([1]; 1 µM ligand) was 24 ± 1 °C, the “ΔTm FmycT-K+” value [1, 8] was 37±2 °C and the “ΔTm FmycT-K+” value ([1]; 10 µM ligand) was greater than 40 °C. The “ΔTm Febr1T-K+” value ([2]; 1 µM ligand) was 2 ± 1 °C, the “ΔTm Febr1T-K+” value [2, 9] was 33±1 °C and the “ΔTm Febr1T-K+” value ([2]; 10 µM ligand) was 39 ± 1 °C. For the same molecule, the “ΔTm F10T-K+” value ([3]; 1 µM ligand) was 1 ± 1 °C, the “ΔTm F10T-K+” value [3, 9] was 6±2 °C and the “ΔTm F10T-K+” value ([3]; 10 µM ligand) was 13 ± 2 °C. It also gave an EC50 [4] of 2.1 ± 0.6 µM, an EC50 ([4]; Homo sapiens, MRC5, 72 h) of 2 µM and an EC50 [5] of 0.027 ± 0.01 µM. The “SI (MRC5/T. brucei)” value ([5]; selectivity index from EC50 values) was 78 and the Ka [6] was 5×10^4.

For `CN1CCN(CCCN2C(=O)c3ccc4c5c(ccc(c35)C2=O)C(=O)N(CCCN2CCN(C)CC2)C4=O)CC1` [Compound 1], the “ΔTm Febr1T-K+” value ([2]; 1 µM ligand) was 7 ± 3 °C, the “ΔTm Febr1T-K+” value [2, 9] was 9±1 °C and the “ΔTm Febr1T-K+” value ([2]; 10 µM ligand) was 11 ± 3 °C. The “ΔTm F10T-K+” value ([3]; 1 µM ligand) was 0 ± 1 °C, the “ΔTm F10T-K+” value [3, 9] was 1±1 °C and the “ΔTm F10T-K+” value ([3]; 10 µM ligand) was 3 ± 1 °C. The EC50 ([4]; Homo sapiens, MRC5, 72 h) was 3.9 ± 0.5 µM, the EC50 [5] was 0.61 ± 0.3 µM and the ΔTm [7] was 9±1 °C. The Ka [6] was 1×10^6.

For `CN1CCN(CCCNC(=O)c2ccc(Oc3ccc(C(C)(C)c4ccc(Oc5ccc(C(=O)NCCCN6CCN(C)CC6)c(C(=O)NCCCN6CCN(C)CC6)c5)cc4)cc3)cc2C(=O)NCCCN2CCN(C)CC2)CC1` [Compound 11], the “ΔTm FmycT-K+” value ([1]; 1 µM ligand) was -3 ± 1 °C, the “ΔTm FmycT-K+” value [1, 8] was 5±1 °C and the “ΔTm FmycT-K+” value ([1]; 10 µM ligand) was 10 ± 2 °C. For the same molecule, the “ΔTm Febr1T-K+” value ([2]; 1 µM ligand) was 1 ± 1 °C, the “ΔTm Febr1T-K+” value [2, 9] was 6±1 °C and the “ΔTm Febr1T-K+” value ([2]; 10 µM ligand) was 13 ± 1 °C. The “ΔTm F10T-K+” value [3, 9] was 0±1 °C, the “ΔTm F10T-K+” value ([3]; 10 µM ligand) was 1 ± 1 °C and the EC50 ([4]; Homo sapiens, MRC5, 72 h) was 59 ± 37 µM. The EC50 [5] was 2.8 ± 2 µM and the ΔTm [7] was 6±1 °C.

With `CN1CCN(CCCN2C(=O)c3ccc(Oc4ccc(C(C)(C)c5ccc(Oc6ccc7c(c6)C(=O)N(CCCN6CCN(C)CC6)C7=O)cc5)cc4)cc3C2=O)CC1` [Compound 9] the “ΔTm FmycT-K+” value [1, 8] was −1±2 °C, the “ΔTm FmycT-K+” value ([1]; 10 µM ligand) was 10 ± 3 °C and the “ΔTm Febr1T-K+” value [2, 9] was −4±1 °C. For the same molecule, the “ΔTm Febr1T-K+” value ([2]; 10 µM ligand) was -3 ± 1 °C, the “ΔTm F10T-K+” value [3, 9] was 0±1 °C and the EC50 ([4]; Homo sapiens, MRC5, 72 h) was 88 ± 10 µM. It also gave an EC50 [5] of 33 ± 24 µM and a ΔTm [7] of −4±1 °C.
